The text below walks through data of patent US9650339B2, “Inhibitors of histone demethylases” (Gilead Sciences, Inc., priority 2013, dated 2017).

Assay type in all cases: biochemical
The target in one assay is T1, KDM5C (JARID1C) (Homo sapiens, UniProt P41229).
T1 construct: 2-1560; purchased BPS; host or cells: Bac (baculovirus system)
Put plainly: Histone lysine demethylase AlphaLISA assay, KDM5C. As to conditions: read-out: KDM5C HDME Inhibition IC50. The method, then: (§1) Assays are performed analogously to the protocol described by PerkinElmer (Roy et al. PerkinElmer Technical Note: AlphaLISA #12, April 2011)
(§2) Enzymes are dissolved in enzyme buffer and incubated for 10 min before being added to 3% DMSO solutions of compounds in enzyme buffer. Incubated for another 10 minutes, before substrate solution is added and the reaction mixture is incubated at room temperature. 10 μL acceptor beads, suspended in Epigenetic Buffer (Perkin Elmer AL008) from stock, are added and the suspension is incubated in the dark at room temperature, before a suspension of streptavidin donor beads (Perkin Elmer 6760002) in Epigenetic Buffer is added. After incubation at room temperature in the dark the plates are read. […]
H3K4M3B: H-ART(Kme3)QTARKSTGGKAPRKQLA-NH-Biotin (Caslo, Denmark) […]
(§3) Substrate Solution: Substrate, 25 μM L-Asc, and 10 μM α-KG in Buffer A.

The target of the next assay is T2, KDM6B (JMJD3) (Homo sapiens, UniProt O15054).
T2 construct: 1043-end; purchased BPS; host or cells: Bac (baculovirus system)
T2 sequence (O15054 1043-1682 isoform O15054-1 limits assumed): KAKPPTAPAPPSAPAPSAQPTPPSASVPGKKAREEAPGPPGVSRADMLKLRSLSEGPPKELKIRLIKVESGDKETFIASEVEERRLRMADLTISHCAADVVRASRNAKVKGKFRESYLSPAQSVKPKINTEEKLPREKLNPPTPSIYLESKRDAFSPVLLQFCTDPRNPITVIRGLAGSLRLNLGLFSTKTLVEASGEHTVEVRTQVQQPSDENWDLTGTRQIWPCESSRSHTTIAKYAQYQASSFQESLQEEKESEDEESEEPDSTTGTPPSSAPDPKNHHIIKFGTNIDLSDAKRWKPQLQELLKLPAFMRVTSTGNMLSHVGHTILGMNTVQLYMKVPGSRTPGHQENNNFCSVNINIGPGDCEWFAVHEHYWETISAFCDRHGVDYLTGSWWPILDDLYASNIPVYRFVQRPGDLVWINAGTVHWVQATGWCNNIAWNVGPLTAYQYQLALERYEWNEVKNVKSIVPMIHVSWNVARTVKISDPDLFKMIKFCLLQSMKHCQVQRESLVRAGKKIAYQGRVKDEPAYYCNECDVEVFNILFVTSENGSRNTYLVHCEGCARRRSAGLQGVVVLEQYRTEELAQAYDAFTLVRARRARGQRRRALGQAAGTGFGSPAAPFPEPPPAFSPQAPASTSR
Put plainly: Histone lysine demethylase AlphaLISA assay, KDM6B. The following applies: read-out: KDM6B HDME Inhibition IC50. As for the experimental part:
as §1, §2
BK27M3: Biotin-ATKAAR(Kme3)SAPATGGVKKPHRY-NH2? (Caslo, Denmark) […]
as §3

In the next assay the target is T3, KDM7 (PHF8) (Homo sapiens, UniProt Q9UPP1).
T3 construct: KDM7 (PHF8); BRIC; 1-1322; Bac
T3 sequence (Q9UPP1 37-440 limits assumed): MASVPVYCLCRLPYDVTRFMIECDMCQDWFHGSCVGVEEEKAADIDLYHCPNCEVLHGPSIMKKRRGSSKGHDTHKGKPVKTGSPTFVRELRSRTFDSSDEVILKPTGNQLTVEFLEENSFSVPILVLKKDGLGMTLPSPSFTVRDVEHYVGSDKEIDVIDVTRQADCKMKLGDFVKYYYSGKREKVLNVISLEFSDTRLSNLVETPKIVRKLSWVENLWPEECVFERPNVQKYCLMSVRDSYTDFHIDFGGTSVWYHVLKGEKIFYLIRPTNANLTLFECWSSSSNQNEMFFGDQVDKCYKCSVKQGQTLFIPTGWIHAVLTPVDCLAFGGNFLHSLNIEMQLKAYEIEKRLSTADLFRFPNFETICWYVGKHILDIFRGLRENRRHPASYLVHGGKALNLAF
As to the kind of experiment: Histone lysine demethylase AlphaLISA assay, KDM7. The following applies: read-out: PHF8 HDME Inhibition IC50. The method, then:
as §1, §2
BK9M2: Biotin-ARTKQTAR(KMe2)STGGKAPRKQ-NH2 (AnaSpec 64359)
BK9M1: Biotin-ARTKQTAR(KMe1)STGGKAPRKQ-NH2 (AnaSpec 64358) […]
as §3

In a further assay the target is T4, KDM3A (JMJD1A) (Homo sapiens, UniProt Q9Y4C1).
T4 construct: 2-end; purchased BPS Bioscience, US; host or cells: Bac (baculovirus system)
T4 sequence (Q9Y4C1 2-1321 limits assumed): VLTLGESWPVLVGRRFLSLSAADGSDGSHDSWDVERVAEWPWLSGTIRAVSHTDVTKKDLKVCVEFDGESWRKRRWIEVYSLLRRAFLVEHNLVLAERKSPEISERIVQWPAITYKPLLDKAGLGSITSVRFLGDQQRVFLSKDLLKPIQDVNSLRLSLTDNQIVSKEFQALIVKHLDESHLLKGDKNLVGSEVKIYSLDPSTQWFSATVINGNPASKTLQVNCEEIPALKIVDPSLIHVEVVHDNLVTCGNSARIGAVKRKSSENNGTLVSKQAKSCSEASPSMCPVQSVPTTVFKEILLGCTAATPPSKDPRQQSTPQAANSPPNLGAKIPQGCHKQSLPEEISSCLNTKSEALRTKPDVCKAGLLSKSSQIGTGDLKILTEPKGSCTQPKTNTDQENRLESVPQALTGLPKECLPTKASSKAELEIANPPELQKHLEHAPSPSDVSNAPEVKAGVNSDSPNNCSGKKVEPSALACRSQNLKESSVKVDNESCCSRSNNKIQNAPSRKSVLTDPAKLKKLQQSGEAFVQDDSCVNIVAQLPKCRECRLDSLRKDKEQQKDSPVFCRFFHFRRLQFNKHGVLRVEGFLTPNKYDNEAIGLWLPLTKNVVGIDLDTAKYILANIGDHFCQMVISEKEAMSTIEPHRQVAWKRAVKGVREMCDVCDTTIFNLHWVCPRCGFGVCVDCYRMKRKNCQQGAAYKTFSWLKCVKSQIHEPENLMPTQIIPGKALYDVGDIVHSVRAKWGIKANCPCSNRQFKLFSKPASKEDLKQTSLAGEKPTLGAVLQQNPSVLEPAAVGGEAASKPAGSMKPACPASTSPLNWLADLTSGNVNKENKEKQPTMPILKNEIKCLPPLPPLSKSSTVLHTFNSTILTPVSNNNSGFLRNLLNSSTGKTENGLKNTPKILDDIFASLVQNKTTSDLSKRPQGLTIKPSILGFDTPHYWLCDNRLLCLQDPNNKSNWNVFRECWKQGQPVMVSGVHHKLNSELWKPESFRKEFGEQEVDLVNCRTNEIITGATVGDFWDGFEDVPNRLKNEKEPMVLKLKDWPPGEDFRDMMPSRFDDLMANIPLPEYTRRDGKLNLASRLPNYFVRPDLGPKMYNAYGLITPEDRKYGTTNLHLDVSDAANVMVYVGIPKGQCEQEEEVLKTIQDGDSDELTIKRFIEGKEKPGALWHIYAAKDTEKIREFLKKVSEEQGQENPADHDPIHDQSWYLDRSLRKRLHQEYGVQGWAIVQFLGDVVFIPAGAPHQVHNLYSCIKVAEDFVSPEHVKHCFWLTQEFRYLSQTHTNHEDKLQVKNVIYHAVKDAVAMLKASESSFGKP
Put plainly: Histone lysine demethylase AlphaLISA assay, KDM3A. The following applies: read-out: KDM3 A HDME Inhibition IC50. The method, then: as §1, §2
BK9M2: Biotin-ARTKQTAR(KMe2)STGGKAPRKQ-NH2 (AnaSpec 64359) […]
as §3

T1 sequence (P41229 2-1560): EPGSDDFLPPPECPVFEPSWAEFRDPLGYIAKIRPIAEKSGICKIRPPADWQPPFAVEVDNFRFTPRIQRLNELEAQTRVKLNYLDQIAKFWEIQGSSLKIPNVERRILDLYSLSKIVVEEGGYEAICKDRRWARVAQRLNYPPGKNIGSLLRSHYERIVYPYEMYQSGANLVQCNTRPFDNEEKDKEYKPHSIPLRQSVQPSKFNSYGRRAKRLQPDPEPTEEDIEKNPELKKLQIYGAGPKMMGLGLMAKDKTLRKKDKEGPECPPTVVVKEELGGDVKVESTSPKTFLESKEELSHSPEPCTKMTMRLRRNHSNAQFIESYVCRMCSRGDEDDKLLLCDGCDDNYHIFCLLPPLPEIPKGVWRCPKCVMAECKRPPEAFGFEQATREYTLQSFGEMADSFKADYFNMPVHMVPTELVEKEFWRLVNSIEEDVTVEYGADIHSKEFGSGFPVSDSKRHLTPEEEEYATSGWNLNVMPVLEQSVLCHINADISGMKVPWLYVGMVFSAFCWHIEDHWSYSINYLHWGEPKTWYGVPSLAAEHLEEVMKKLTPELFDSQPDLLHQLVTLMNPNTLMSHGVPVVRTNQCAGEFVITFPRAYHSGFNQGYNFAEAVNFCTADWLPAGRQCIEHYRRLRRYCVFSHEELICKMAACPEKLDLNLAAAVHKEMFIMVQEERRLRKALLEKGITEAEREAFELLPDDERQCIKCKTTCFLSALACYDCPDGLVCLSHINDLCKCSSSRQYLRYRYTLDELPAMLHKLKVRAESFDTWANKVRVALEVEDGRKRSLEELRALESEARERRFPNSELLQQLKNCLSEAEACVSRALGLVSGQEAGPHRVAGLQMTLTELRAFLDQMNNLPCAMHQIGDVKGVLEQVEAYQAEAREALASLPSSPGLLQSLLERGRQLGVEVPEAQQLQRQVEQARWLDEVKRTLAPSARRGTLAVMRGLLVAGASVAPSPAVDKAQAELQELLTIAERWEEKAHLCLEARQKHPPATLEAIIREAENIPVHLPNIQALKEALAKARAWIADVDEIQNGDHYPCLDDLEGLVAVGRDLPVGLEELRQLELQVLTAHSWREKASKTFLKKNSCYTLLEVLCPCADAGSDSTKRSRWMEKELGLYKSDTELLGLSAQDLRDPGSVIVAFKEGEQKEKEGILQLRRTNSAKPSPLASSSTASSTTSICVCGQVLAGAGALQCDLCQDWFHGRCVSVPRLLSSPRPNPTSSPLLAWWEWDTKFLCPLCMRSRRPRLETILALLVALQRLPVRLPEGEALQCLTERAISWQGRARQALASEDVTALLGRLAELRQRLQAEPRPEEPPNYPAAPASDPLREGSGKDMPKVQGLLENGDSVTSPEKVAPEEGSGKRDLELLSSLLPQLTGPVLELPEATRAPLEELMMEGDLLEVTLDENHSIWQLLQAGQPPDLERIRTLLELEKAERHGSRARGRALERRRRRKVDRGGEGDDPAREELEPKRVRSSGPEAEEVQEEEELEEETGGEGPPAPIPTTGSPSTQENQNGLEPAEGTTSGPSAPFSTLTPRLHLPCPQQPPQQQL

As to `CCN(CC)CCCCNCc1cc(CNC(=O)C(F)(F)F)ccn1` [Compound 1, N-{[2-({[4-(diethylamino)butyl]-amino}methyl)pyridin-4-yl]methyl}-2,2,2-trifluoroacetamide], the IC50 on KDM5C (JARID1C) was 250 to 2500 nM; at KDM6B (JMJD3) it was greater than 2500 nM; on KDM7 (PHF8) it was 250 to 2500 nM; at KDM3A (JMJD1A), greater than 2500 nM.

Regarding `CN(C)CCCNCc1cc(CN)ccn1` [Compound 3, [2-({[3-(dimethylamino)propyl]-amino}methyl)pyridin-4-yl]methanamine], the half-maximal inhibitory concentration (IC50) was less than 250 nM on KDM5C (JARID1C), greater than 2500 nM at KDM6B (JMJD3) and 250 to 2500 nM at KDM7 (PHF8).

Take `CCN(CCN(C)C)C(=O)CNCc1cc(CN)ccn1` [Compound 4, 2-({[4-(aminomethyl)pyridin-2-yl]methyl}amino)-N-[2-(dimethylamino)ethyl]-N-ethylacetamide]: the IC50 on KDM5C (JARID1C) is less than 250 nM; on KDM6B (JMJD3), greater than 2500 nM; at KDM7 (PHF8), 250 to 2500 nM; on KDM3A (JMJD1A), greater than 2500 nM.

In the case of `CCN(CC)CCCCNCc1cc(CN)ccn1` [Compound 5, [2-({[4-(diethylamino)butyl]-amino}methyl)pyridin-4-yl]methanamine], the concentration for half-maximal inhibition (IC50) on KDM6B (JMJD3), at KDM7 (PHF8) and at KDM3A (JMJD1A) was greater than 2500 nM each time.

In the case of `NCc1ccnc(CNCCCCN2CCC2)c1` [Compound 7, [2-({[4-(azetidin-1-yl)butyl]amino}methyl)-pyridin-4-yl]-methanamine], the IC50 at KDM6B (JMJD3), on KDM7 (PHF8) and on KDM3A (JMJD1A) was greater than 2500 nM in each case.

For `CN(C)CCCCNCc1cc(CNC2CC2)ccn1` [Compound 10, N-{[2-({[4-(dimethylamino)butyl]-amino}methyl)pyridin-4-yl]methyl}-cyclopropanamine], the IC50 on KDM6B (JMJD3), on KDM7 (PHF8) and at KDM3A (JMJD1A) was greater than 2500 nM each time.

`CC1CCCCN1CCCNCc1cc(CNC2CC2)ccn1` (stereo not shown) [Compound 11, N-{[2-({[3-(2-methylpiperidin-1-yl)propyl]amino}methyl)-pyridin-4-yl]methyl}-cyclopropanamine]: the 50% inhibitory concentration (IC50) on KDM6B (JMJD3), at KDM7 (PHF8) and at KDM3A (JMJD1A) was greater than 2500 nM each time.

As for `CN(C)C(=O)CNCc1cc(CNCC#N)ccn1` [Compound 13, 2-{[(4-{[(cyanomethyl)amino]-methyl}pyridin-2-yl)methyl]amino}-N,N-dimethylacetamide], the half-inhibitory concentration (IC50) on KDM5C (JARID1C), on KDM6B (JMJD3) and at KDM7 (PHF8) was greater than 2500 nM in each case.

On to `CN(C)C(=O)CNCc1cc(/C=N\C2CC2)ccn1` [Compound 33], for which the half-inhibitory concentration (IC50) at KDM5C (JARID1C) was less than 250 nM; at KDM6B (JMJD3), greater than 2500 nM; on KDM7 (PHF8) it was greater than 2500 nM.

Regarding `CN(CCCNCc1cc(/C=N/C2CC2)ccn1)Cc1ccccc1` [Compound 41, N-({2-[({3-[benzyl(methyl)amino]-propyl}amino)methyl]-pyridin-4-yl}methylidene)-cyclopropanamine], the half-inhibitory concentration (IC50) on KDM6B (JMJD3) and at KDM7 (PHF8) was greater than 2500 nM each time.

In the case of `CN(CCCn1cccn1)C(=O)CNCc1cc(/C=N/C2CC2)ccn1` [Compound 52, 2-[({4-[N-cyclopropyl-carboximidoyl]-pyridin-2-yl}methyl)amino]-N-methyl-N-[3-(1H-pyrazol-1-yl)propyl]acetamide], the IC50 is less than 250 nM on KDM5C (JARID1C), greater than 2500 nM at KDM6B (JMJD3) and greater than 2500 nM on KDM3A (JMJD1A).

For `CCN(CCN(C)C)C(=O)CNCc1cc(/C=N/CCC2CCCCC2)ccn1` [Compound 63, 2-[({4-[[(2-cydohexylethyl)-imino]methyl]pyridin-2-yl}methyl)amino]-N-[2-(dimethylamino)-ethyl]-N-ethylacetamide], the IC50 was less than 250 nM at KDM5C (JARID1C), greater than 2500 nM at KDM6B (JMJD3) and greater than 2500 nM on KDM7 (PHF8).

Consider `CCN(CC)CCCCNCc1cc(/C=N\CCC2CCCCC2)ccn1` [Compound 67, (2-cyclohexylethyl)-({[2-({[4-(diethylamino)-butyl]amino}methyl)pyridin-4-yl]methylidene})-amine], for which the IC50 is less than 250 nM on KDM5C (JARID1C), greater than 2500 nM at KDM7 (PHF8) and greater than 2500 nM on KDM3A (JMJD1A).

Regarding `CCN(CCN(C)C)C(=O)CNCc1cc(C2OCC(Cc3ccccc3)CN2C(=O)C(F)(F)F)ccn1` (stereo not shown) [Compound 90, 2-[({4-[5-benzyl-3-(trifluoroacetyl)-1,3-oxazinan-2-yl]pyridin-2-yl}methyl)amino]-N-[2-(dimethylamino)-ethyl]-N-ethylacetamide], the half-inhibitory concentration (IC50) on KDM7 (PHF8) is greater than 2500 nM.

Turning to `CCN(CCN(C)C)C(=O)CNCc1cc(C2OCC3(CC3)CN2C(=O)C(F)(F)F)ccn1` (stereo not shown) [Compound 91, N-[2--(dimethylamino)-ethyl]-N-ethyl-2-[({4-[7-(trifluoroacetyl)-5-oxa-7-azaspiro[2.5]-octan-6-yl]pyridin-2-yl}methyl)amino]-acetamide], at KDM7 (PHF8), the IC50 was greater than 2500 nM.

`CN(Cc1ccccc1F)C(=O)CNCc1cc(/C=N/CCO)ccn1` [Compound 92, N-[(2-fluorophenyl)methyl]-2-[({4-[[(2-hydroxyethyl)imino]-methyl]pyridin-2-yl}methyl)amino]-N-methylacetamide]: the concentration for half-maximal inhibition (IC50) at KDM7 (PHF8) is greater than 2500 nM.

Turning to `OCC/N=C/c1ccnc(CNCCc2ccccc2OCc2ccccc2)c1` [Compound 93, 2-[({2-[({2-[2-(benzyloxy)phenyl]-ethyl}amino)methyl]-pyridin-4-yl}methylidene)-amino]ethan-1-ol], the IC50 on KDM7 (PHF8) was greater than 2500 nM.

With `CCN(CCC#N)C(=O)CNCc1cc(/C=N/CCO)ccn1` [Compound 94, N-(2-cyanoethyl)-N-ethyl-2-[({4-[[(2-hydroxyethyl)imino]-methyl]pyridin-2-yl}methyl)amino]-acetamide], the IC50 at KDM7 (PHF8) is 250 to 2500 nM.

Turning to `CN(C)CC1CCC(CNCc2cc(C=O)ccn2)CC1` (stereo not shown) [Compound 97, 2-{[({4-[(dimethylamino)-methyl]cyclohexyl}-methyl)amino]-methyl}pyridine-4-carbaldehyde], the IC50 at KDM6B (JMJD3), on KDM7 (PHF8) and at KDM3A (JMJD1A) was greater than 2500 nM throughout.

As for `CCN(CC)C(=O)CNCc1cc(C=O)ccn1` [Compound 105, N,N-diethyl-2-{[(4-formylpyridin-2-yl)methyl]amino}-acetamide], the 50% inhibitory concentration (IC50) on KDM6B (JMJD3) and at KDM3A (JMJD1A) was greater than 2500 nM throughout.

On to `CCN(CC(C)(C)N(C)C)C(=O)CNCc1cc(C=O)ccn1` [Compound 118, N-[2-(dimethylamino)-2-methylpropyl]-N-ethyl-2-{[(4-formylpyridin-2-yl)methyl]amino}-acetamide], for which, on KDM7 (PHF8), the IC50 was 250 to 2500 nM.

Take `CN(CC(=O)N1CCCCC1)Cc1cc(C=O)ccn1` [Compound 120, 2-({methyl[2-oxo-2-(piperidin-1-yl)ethyl]amino}-methyl)pyridine-4-carbaldehyde]: at KDM7 (PHF8), the half-inhibitory concentration (IC50) lay in the range of 250 to 2500 nM.
